Where two headings read alike, the source gives them in different places.

Assay [1] addresses recombinant human HLA-E*01:03 (heavy chain with β2m), soluble, refolded. Kind of assay: SPR. A general note: In SPR one partner is held on a chip, and binding of the other changes the refractive index at the surface.
The target is the same in assay [2]. In words: thermal shift assay (refolded pHLA-E*01:03 complexes); Tm of the same pHLA-E*01:03 complexes as in the SPR stability assay (Fig. 1c); triplicate.
Assay [3] concerns THP-1-E cells (HLA-E*01:01) pulsed with peptide. Kind of assay: IFN-γ ELISpot cross-reactivity screen with HLA-E binding peptides. Format: cell-based, human. As to conditions: 1 nM ImmTAV, THP-1-E cells pulsed with 10 μg/mL peptide, average of 2 HBV-naïve donor PBMC each in triplicate.
Assay [4] has as its system THP-1-E cells (HLA-E*01:03) pulsed with peptide. The assay is described as above. Format: cell-based, human. Particulars: 1 nM ImmTAV, THP-1-E cells pulsed with 10 μg/mL peptide, average of 2 HBV-naïve donor PBMC each in triplicate.
For assay [5], the system named is K562 cells transduced with single chain β2m-HLA-E*01:01. In words: K562 cell pulsing assay, HLA-E surface upregulation (3D12, flow cytometry). Format: cell-based, human. Background: In flow cytometry, cells or beads pass a laser one at a time.
In assay [6] the test system is K562 cells transduced with single chain β2m-HLA-E*01:03. Described as above. Format: cell-based, human.
Assay [7] has as its target single chain β2m-HLA-E*01:03 on transduced cells.
In assay [8] the target is single chain β2m-HLA-E*01:01 on transduced cells.
Assay [9] deals with recombinant human HLA-E*01:03 (heavy chain with β2m), soluble, refolded. In words: thermal shift assay (peptide screen).
Assay [10] addresses T1, HLA-E*01:03 (Homo sapiens, UniProt P13747). Format: binding. As to conditions: for Tm (°C): Figure 1a source data, 60:1 peptide excess; for Thermal stability Tm (°C): SYPRO Orange, 22-95 °C at 1 °C/min, mean ± SD of triplicates, SD.
Assay [11] deals with T1, HLA-E*01:03. Format: binding. Details: made in house. Particulars: refolded complexes.
Assay [12] deals with T1, HLA-E*01:03. Kind of assay: pHLA-E stability (t1/2) by SPR monitoring ILT2 binding. Further details: made in house. As to conditions: SPR 25 °C.

Cw3 signal peptide: the t1/2 of the peptide-HLA-E complex in assay [1] turned out to be 2 h. In assay [2], the Tm of the peptide-HLA-E complex was determined as 49 °C.
In the same order, the values of A1 signal peptide are 2 h and 49 °C.
On to ALSWRLPLL [Mimetic peptide 1], for which the “HLA-E*01:01 INF-γ release (SFU ± SD)” value in [3] came to 61.6±21.8 SFU. In assay [4], the “HLA-E*01:03 INF-γ release (SFU ± SD)” value is 54.1±15.6 SFU.
For VTAPRTLLL [Leader B13], in that order: 53±13.4 SFU and 56±17.9 SFU.
On to QMRPVSRVL [Hsp60 signal peptide], for which the “HLA-E*01:01 INF-γ release (SFU ± SD)” value in [3] is on record as 43.8±6.36 SFU. Also, the “HLA-E*01:03 INF-γ release (SFU ± SD)” value in assay [4] worked out at 41.8±9.9 SFU.
As to RLPAKAPLL [Mtb RLPA], the “HLA-E*01:01 INF-γ release (SFU ± SD)” value in assay [3] is reported as 67.1±12.6 SFU. The “cell surface HLA-E expression after peptide pulsing” value in [5] and in assay [6] was “increased cell surface HLA-E expression” each time. The “HLA-E*01:03 INF-γ release (SFU ± SD)” value in assay [4] was 72.1±12.8 SFU.
Turning to LLPRRGPRL [HCV Core], in assay [3], the “HLA-E*01:01 INF-γ release (SFU ± SD)” value came out at 61.1±21.8 SFU. The “HLA-E*01:03 INF-γ release (SFU ± SD)” value in assay [4] was 60±30.1 SFU.
As to VMAPQALLL [Leader Cw16], the “HLA-E*01:01 INF-γ release (SFU ± SD)” value in assay [3] is given as 33.3±16.4 SFU. The “HLA-E*01:03 INF-γ release (SFU ± SD)” value in assay [4] is on record as 49.1±19.2 SFU.
Consider HBV Env_(371-379) (S3N) peptide …, for which the t1/2 of the peptide-HLA-E complex in [1] was 0.658 h. The same substance showed a peptide concentration at which IFN-γ responses (ELISPOT) were detected: peptide titrated on THP-1-E*01:03 cells, PBMC, 1 nM a09b08 ImmTAV in assay [7] of 0.2 µg/mL. The same substance returned a peptide concentration at which IFN-γ responses (ELISPOT) were detected: peptide titrated on THP-1-E*01:01 cells, PBMC, 1 nM a09b08 ImmTAV in [8] of 4.9 µg/mL. Moreover, the Tm of the peptide-HLA-E complex in [2] was 47 °C.
Take HBV Env_(371-379) peptide …: the values for the Tm of the peptide-HLA-E complex in [9] and in assay [2] were 47.1 °C and 44 °C, respectively. In addition, in [1], the t1/2 of the peptide-HLA-E complex is 0.112 h. For the same substance, in assay [7], the peptide concentration at which IFN-γ responses (ELISPOT) were detected: peptide titrated on THP-1-E*01:03 cells, PBMC, 1 nM a09b08 ImmTAV worked out at 8.7 µg/mL.
As for FIIFLFILL [HBV Env peptide 243-251], the “Tm (°C)” value in assay [10] (replicate 1) stood at 38.9 °C; in [10] (replicate 2), 39.2 °C; in assay [10] (replicate 3), 39.5 °C. Also, the “Thermal stability Tm (°C)” value in assay [10] came out at 39.3±0.3 °C.
As for IMAPRTLVL [Leader A34], the “HLA-E*01:01 INF-γ release (SFU ± SD)” value in assay [3] is 55.5±6.8 SFU. Further, the “HLA-E*01:03 INF-γ release (SFU ± SD)” value in assay [4] is recorded as 54.5±18.9 SFU.
For VMAPRTVLL [Leader B7], in that order: 43.3±7.8 SFU and 48.7±7.3 SFU.
For the substance ILQRFLPLI [Mimetic peptide 2], in assay [3], the “HLA-E*01:01 INF-γ release (SFU ± SD)” value turned out to be 60.5±20.8 SFU. Besides, the “HLA-E*01:03 INF-γ release (SFU ± SD)” value in [4] is recorded as 48.6±29.1 SFU.
In the same order, the values of ILPSDAPVL [MTB MmmpL875-83] are 52.6±17.39 SFU and 54.8±17.4 SFU.
With RWMCLRRFI [HBV Env peptide 236-244], the results for the “Tm (°C)” value in [10] (replicate 1), in assay [10] (replicate 2) and in [10] (replicate 3) were 37.9 °C, 37.9 °C and 38.4 °C, respectively. For the same substance, the “Thermal stability Tm (°C)” value in [10] worked out at 38.2±0.3 °C.
As to VTAPRTVLL [Leader B15], in [3], the “HLA-E*01:01 INF-γ release (SFU ± SD)” value is 42.8±13.4 SFU. Besides, in assay [4], the “HLA-E*01:03 INF-γ release (SFU ± SD)” value is listed as 40±17.4 SFU.
For VMAPRTLVL [Leader A2], in that order: 50.5±6.8 SFU and 64.5±9.8 SFU.
In the case of GMLPVCPLL [HBV Env peptide 265-273], the “Tm (°C)” value turned out to be 45.1 °C in [10] (replicate 1), 45.1 °C in assay [10] (replicate 2) and 45.5 °C in assay [10] (replicate 3). In assay [10], the “Thermal stability Tm (°C)” value is 45.3±0.3 °C.
For VMPPRTLLL [Leader A80], the “HLA-E*01:01 INF-γ release (SFU ± SD)” value in [3] is 44.8±8.6 SFU. In addition, in [4], the “HLA-E*01:03 INF-γ release (SFU ± SD)” value is given as 61.1±14.3 SFU.
Take VMAPRTLFL [Leader G]: the “HLA-E*01:01 INF-γ release (SFU ± SD)” value in [3] turned out to be 44.8±19.8 SFU. Also, in [4], the “HLA-E*01:03 INF-γ release (SFU ± SD)” value is 48.1±19.7 SFU.
As to VMAPRTLLL [Leader A1], the “pHLA-E*01:03 Tm” value in assay [11] (thermal shift assay, mean ± SD of triplicates) stood at 49 °C. Moreover, the results for the “pHLA-E*01:03 (Tm °C)” value in assay [11] (first well of three), in assay [11] (second well of three) and in [11] (third well of three) were 49.62 °C, 48.27 °C and 48.53 °C, respectively. The “HLA-E*01:01 INF-γ release (SFU ± SD)” value in [3] worked out at 67.8±14.9 SFU. The “pHLA-E*01:03 (t1/2 min)” value is reported as 105 min in assay [12] (Run 1), 125 min in assay [12] (Run 2) and 127 min in assay [12] (Run 3). Further, the “pHLA-E*01:03 t1/2” value in assay [12] (rounded value) was 2 h. For the same substance, the “HLA-E*01:03 INF-γ release (SFU ± SD)” value in [4] turned out to be 65.6±28.4 SFU.
As to VMAPRALLL [Leader Cw7], the “HLA-E*01:01 INF-γ release (SFU ± SD)” value in [3] is 30.3±12.9 SFU. In addition, the “HLA-E*01:03 INF-γ release (SFU ± SD)” value in assay [4] was 44.1±22.1 SFU.
For the substance CIPIPSSWAF [HBV Env peptide 312-321], the “Tm (°C)” value turned out to be 42.2 °C in [10] (replicate 1), 41.7 °C in assay [10] (replicate 2) and 42.2 °C in assay [10] (replicate 3). The “Thermal stability Tm (°C)” value in assay [10] was determined as 42.1±0.3 °C.
As to SSWAFARFL [HBV Env peptide 317-325], the figures for the “Tm (°C)” value in assay [10] (replicate 1), in [10] (replicate 2) and in [10] (replicate 3) were 40.7 °C, 40.6 °C and 40.7 °C, respectively. Besides, the “Thermal stability Tm (°C)” value in assay [10] was found to be 40.7±0.1 °C.

(Values after PMC11584656, “Viral sequence determines HLA-E-restricted T cell recognition of hepatitis B surface antigen” (Nature Communications, 2024).)
